Experimental data taken from article PMC12298822 (Molecules, 2025).

Tests used:
[1] = cited from earlier work
[2] = 100 mg dose; cited from earlier work
[3] = Stability of sitagliptin in human plasma samples under storage and handling conditions; format: in vitro ADME
Experimental: (§1) Human plasma samples were removed from a −70 °C deep freezer and thawed at room temperature. After vortexing and centrifugation, 100 µL of plasma was transferred into a glass tube. To this, 20 µL of the IS (1000 ng/mL) was added, followed by the addition of 2 mL of MTBE as the extraction solvent. The mixture was vortexed vigorously for 10 min and centrifuged at 1699 g for 10 min at 4 °C. The upper organic layer (2 mL) was carefully transferred to a new tube and evaporated to dryness under a nitrogen stream at 40 °C. The dried residue was reconstituted with a total volume of 1 mL of a reconstitution solvent composed of 0.01% formic acid in DW and 100% ACN (1:1, v/v), vortexed for 10 min, and centrifuged again at 1699× g. A 5 µL aliquot of the clear supernatant was injected into the LC–MS/MS system for analysis.
The stability of both stock and working solutions was evaluated at low and high QC levels (n = 3) under storage conditions of room temperature (25 °C) for 3 h and −20 °C for 7 h. All results were within the acceptable deviation limit of ±15% from the nominal concentrations. To assess the plasma stability of the analyte, low, medium, and high QC levels (n = 3) were tested under various conditions, including refrigerated storage at 4 °C for 24 h, deep-freezing at −70 °C for 7 h, three freeze–thaw cycles (between −70 °C and room temperature), and storage in the autosampler at 10 °C for 30 h. All measured concentrations under these conditions met the predefined acceptance criteria of ±15%, confirming the robustness and reliability of the analytical method.

[4] = cited from earlier work; remark: listed apart in the source
[5] = Pharmacokinetic study after a single oral 100 mg sitagliptin tablet in healthy Korean male subjects (LC-MS/MS of plasma); format: in vivo, human; conditions: single oral 100 mg tablet, fasting
Experimental: as §1
This study procedures were conducted with the principles of the Helsinki Declaration (World Medical Association Declaration of Helsinki 2000) and Korean Good Clinical Practice guidelines. The study was approved by the Institutional Review Board (IRB) of Kyung Hee University Hospital (IRB No. KHUH 2023-07-039; approval date: 20 October 2023). […] Blood samples were collected using EDTA-K2 anticoagulant tubes at various time points: pre-dose (0 h), and at 0.5, 1, 1.5, 2, 2.5, 3, 4, 6, 8, 16, 24, and 48 h following administration. Once collected, the blood samples were centrifuged at 3000 rpm for 10 min to separate the plasma, which was then transferred to labeled tubes and stored at −70 °C until analysis. All clinical procedures, including dosing, sampling, and analysis, were conducted consistently across all subjects.
Pharmacokinetic parameters such as Cmax (maximum plasma concentration), Tmax (time to reach Cmax), T1/2 (elimination half-life), and CL/F (apparent oral clearance) were determined from individual plasma concentration–time profiles. Non-compartmental analysis for extravascular administration was performed using BA Cal 2007 software (MFDS, version 1.0.0). This analysis calculated parameters including AUClast (area under the concentration–time curve from 0 to 48 h) and AUCinf (area under the curve extrapolated to infinity). The statistical analysis of the pharmacokinetic data was conducted using K-BE Test II software (version 2.0.2), which was developed and distributed by the MFDS [26].

[6] = Stability of stock and working solutions; format: physicochemical
Experimental: These stock solutions were diluted with 50% acetonitrile to prepare working standard solutions. The working solutions’ calibration curve (CC) concentrations were set at 50, 100, 500, 1000, 2500, 5000, and 10,000 ng/mL, while the quality control (QC) concentrations were 150, 3000, and 8000 ng/mL. The IS concentration was prepared at 1000 ng/mL. All working stock solutions were prepared and stored at −20 °C until use. […] Consequently, the final calibration curve range was 5–1000 ng/mL. […] All results were within the acceptable deviation limit of ±15% from the nominal concentrations. To assess the plasma stability of the analyte, low, medium, and high QC levels (n = 3) were tested under various conditions, including refrigerated storage at 4 °C for 24 h, deep-freezing at −70 °C for 7 h, three freeze–thaw cycles (between −70 °C and room temperature), and storage in the autosampler at 10 °C for 30 h. All measured concentrations under these conditions met the predefined acceptance criteria of ±15%, confirming the robustness and reliability of the analytical method.

In the case of `N[C@@H](CC(=O)N1CCn2c(nnc2C(F)(F)F)C1)Cc1cc(F)c(F)cc1F` [Sitagliptin, 7-[(3R)-3-amino-1-oxo-4-(2,4,5-trifluorophenyl)butyl]-5,6,7,8-tetrahydro-3-(trifluoromethyl)], the “apparent volume of distribution” value [1] is listed as “approximately 198 L”, the “fraction of total clearance by hepatic metabolism (CYP3A4 and CYP2C8)” value [1] is listed as less than 16% and the oral bioavailability [1] is listed as “approximately 87%”. The “maximum concentration (Cmax)” value [2] was 327.98 ng/mL, the “terminal half-life (T1/2)” value [2] was 8.92 h and the “time to reach maximum concentration (Tmax)” value [2] was 2.68 h. The “Plasma sample stability (%), mean” value ([3]; human plasma, deep freeze (7 h, −70 °C), 15 ng/mL) was 99.61%, the “Plasma sample stability (%), mean” value ([3]; human plasma, deep freeze (7 h, −70 °C), 300 ng/mL) was 96.77% and the “Plasma sample stability (%), mean” value ([3]; human plasma, deep freeze (7 h, −70 °C), 800 ng/mL) was 97.96%. The “Plasma sample stability (%), mean” value ([3]; human plasma, freeze–thaw (3 cycles), 15 ng/mL) was 103.73%, the “Plasma sample stability (%), mean” value ([3]; human plasma, freeze–thaw (3 cycles), 300 ng/mL) was 98.57% and the “Plasma sample stability (%), mean” value ([3]; human plasma, freeze–thaw (3 cycles), 800 ng/mL) was 97.71%. For the same molecule, the “Plasma sample stability (%), mean” value ([3]; human plasma, refrigeration (7 h, 4 °C), 15 ng/mL) was 100.61%, the “Plasma sample stability (%), mean” value ([3]; human plasma, refrigeration (7 h, 4 °C), 300 ng/mL) was 100.02% and the “Plasma sample stability (%), mean” value ([3]; human plasma, refrigeration (7 h, 4 °C), 800 ng/mL) was 96.29%. The “Plasma sample stability (%), mean” value ([3]; human plasma, room temperature (7 h), 15 ng/mL) was 102.57%, the “Plasma sample stability (%), mean” value ([3]; human plasma, room temperature (7 h), 300 ng/mL) was 97.43% and the “Plasma sample stability (%), mean” value ([3]; human plasma, room temperature (7 h), 800 ng/mL) was 96.99%. The “Plasma sample stability (%), mean” value ([3]; processed (LLE) plasma sample, autosampler (30 h, 10 °C), 15 ng/mL) was 105.20%, the “Plasma sample stability (%), mean” value ([3]; processed (LLE) plasma sample, autosampler (30 h, 10 °C), 300 ng/mL) was 97.37% and the “Plasma sample stability (%), mean” value ([3]; processed (LLE) plasma sample, autosampler (30 h, 10 °C), 800 ng/mL) was 96.83%. The “binding to plasma proteins” value [4] was 38%, the half-life ([5]; human, plasma, n = 8, mean) was 8.47 ± 3.08 h and the Cmax ([5]; human, n = 8, plasma, mean) was 373 ng/mL. For the same molecule, the Tmax ([5]; human, n = 8, plasma, mean) was 2.06 h, the AUClast ([5]; n = 8, 0 to 48 h, mean) was 2863.82 ng·h/mL and the AUCinf ([5]; n = 8, extrapolated to infinity, mean) was 3010.56 ± 302.61 ng·h/mL. For the same molecule, the “Solution stability (%), mean” value ([6]; stock solution, room temperature (3 h), 15 ng/mL level, vs freshly prepared) was 100.89%, the “Solution stability (%), mean” value ([6]; stock solution, room temperature (3 h), 800 ng/mL level, vs freshly prepared) was 99.25% and the “Solution stability (%), mean” value ([6]; working solution, room temperature (7 h), 15 ng/mL level) was 100.19%. The “Solution stability (%), mean” value ([6]; working solution, room temperature (7 h), 800 ng/mL level) was 95.93%.
